Assay results: patent US20050004068A1, “Modulation of tor” (priority 2001, published 2005)
“And” between values parts separate entries of the source, which are not always exact repeats. Equal entries are not always repeated. “Also recorded” adds a separate entry of the source. Where two headings read alike, the source gives them in different places.

Tests used:
[1] = test system: S6K1 (T389 phosphorylation / activation; reporter for mTOR function); assay: Insulin-induced S6K1 activation and T389 phosphorylation in HEK293 cells (reporter for mTOR function); type: cell-based, human; details: HEK293, 200 nM insulin, 100 mM 2-deoxyglucose or 20 mM rotenone, 30 min
Method: Because mTOR is sensitive to amino acids and regulates ribosome biogenesis (Dennis et al., 1999; Gingras et al., 2001; Schmelzle and Hall, 2000), we tested whether its activity may be sensitive to metabolic inhibitors. We used, insulin-induced S6K1 activation and 4E-BP1 phosphorylation as reporters for mTOR function in the presence of glycolytic or mitochohdrial inhibitors to reduce ATP production.
Briefly, human embryonic kidney cells (HEK293) were seeded and maintained as previously described (Pullen et al., Science 279, 707 (1998)). Confluent cells were serum starved for 20 h and then extracted (controls) or treated with 200 nM insulin in the precence or absence of 100 mM 2-deoxyglucose or 20 mM rotenone for 30 min. Cell extraction, kinase assays and Western blot analysis (used to measure S6K1 levels and T389 phosphorylation) were performed as described (Pullen et al.,1998). Phosphospecific antibodies are commercially available (e.g., New England Biolabs).

[2] = test system: 4E-BP1 (S65 phosphorylation; mTOR-mediated site); type: cell-based, human
Method: Transfections were carried out essentially as described by Manteuffel et al., 1997, Mol Cell. Biol. 17, 5426 with the 4EBP-1 construct described therein. The expression and phosphorylation of transiently-transfected HA-4E-BP1 was measured using a polyclonal anti-HA antibody and phosphospecific antibody against S65, respectively, essentially as described above (Pullen et al., 1998). The anti-HA antibody was obtained from a commercial source (Santa Cruz Biotechnology, Inc). The mTOR-mediated phosphorylation site in 4E-BP1 is S65.

[3] = test system: HEK293 cells (intracellular ATP); assay: Intracellular ATP levels in HEK293 cells, luciferase-based assay; type: cell-based, human; details: for ATP levels compared to insulin stimulated control (100%): Example 4; for ATP levels as a percentage of the insulin-stimulated control (100%): mock-transfected HEK293, insulin-stimulated, treated as in Example 1 (100 mM 2-deoxyglucose or 20 mM rotenone, 30 min)
Method: Because mTOR is sensitive to glycolitic inhibitors, we wanted to determine whether mTOR is sensitive to alterations in intracellular ATP concentrations. ATP levels were measured from mock-transfected HEK293 cells (using empty vector) treated as in Example 1, using a luciferase-based assay. Retonone and 2-deoxyglucose treatments were carried out on insulin-stimulated cells.
To generate extracts for ATP assays, cells were washed twice with 10 ml ice cold PBS, drained thoroughly, scraped into 1 ml of buffer (100 mM Tris-HCl and 4 mM EDTA pH 7.75) and transferred into an Eppendorf tube before flash freezing in liquid nitrogen. The frozen cells were boiled for 3 min and then placed on ice for 5 min followed by centrifugation at 13,000 rpm for 5 min at 4° C. ATP levels in the extract were measured in a microtiter plate by a Luciferase-based assay (Roche, ATP Bioluminescence Assay Kit CLS II) using a Microlumat LB96P microtiter plate reader (EG&G Berthold). In an illustrative set of experiments and expressing results as a percentage of the insulin-stimulated control (100%), ATP levels increased slightly in insulin treated cells (94% in unstimulated cells), decreased in 2-deoxyglucose treated cells (40-49%) and rotenone-treated cells (75-83%).
(§1) Rapamycin resistance was conferred by fusing glutathione-S-transferase to the NH2-terminus of S6K1 and truncating the COOH-terminus, creating a construct termed GST-ΔC-S6K1 (Pullen et al.,1 998). For the construction of the GST-ΔC-S6K1 (also known as GST-ΔC104-S6K1) and D3E, K100Q-S6K1-GST plasmids, similar cloning strategies were used. S6K1-GST or GST-ΔC-S6K1 from transiently-transfected, serum-starved HEK293 cells were extracted directly or after insulin stimulation with or without the addition of 20 nM rapamycin or 100 nM wortmannin. Kinase activities, expression levels and T389 phosphorylation were carried out essentially as described above. Expression and activity of S6K1-GST or GST-ΔC-S6K1 were measured after insulin stimulation alone or with increasing amounts of 2-deoxyglucose (20, 40 and 100 mM) essentially as described above. Mock-transfected HEK293 cells were treated using the same conditions and extracted for ATP analysis

Protein Kinase B (PKB) = assay: Insulin-induced HA-PKB activation (S473 phosphorylation, in vitro H2B phosphorylation); type: cell-based, human; details: 100 mM 2-deoxyglucose, 20 nM rapamycin or 100 nM wortmannin
Method: (§2) Transiently-transfected, HA-tagged PKB activation was measured in vitro using histone 2B (H2B) as substrate (Franke et al., 1995, Cell 81, 727) after immunoprecipitation from serum-starved cells extracted directly or after insulin stimulation with or without the addition of 100 mM 2-deoxyglucose, 20 nM rapamycin or 100 nM wortmannin. Rapamycin and wortmannin were added to serum-starved cells 30 min prior to insulin-stimulation. HA-PKB expression and S473 phosphorylation were measured essentially as described above. HA-MAPK kinase activity toward using myelin basic protein (MBP) was measured from serum-starved cells extracted directly or after 100 nM TPA stimulation in the presence or absence of 20 nM rapamycin or 100 mM 2-deoxyglucose for 30 min (N. Pullen et al., 1998).

[4] = test system: Mitogen-Activated Protein Kinase (MAPK); assay: TPA-induced HA-MAPK activation (MBP phosphorylation); type: cell-based, human; details: 100 nM TPA, 100 mM 2-deoxyglucose, 30 min
Method: as §2

S6K1-GST = assay: Insulin-induced activation of S6K1-GST (rapamycin sensitive) in transfected HEK293 cells; type: cell-based, human; details: 20 nM rapamycin, 100 nM wortmannin, or 2-deoxyglucose 20, 40 and 100 mM
Source text: as §1

GST-ΔC-S6K1 = assay: Insulin-induced activation of GST-ΔC-S6K1 (rapamycin-resistant allele) in transfected HEK293 cells; type: cell-based, human; details: 20 nM rapamycin, 100 nM wortmannin, or 2-deoxyglucose 20, 40 and 100 mM
Source text: as §1

aminoacylated tRNA = assay: tRNA aminoacylation in HEK293 cells (acid/urea gel, Northern blot); type: cell-based, human; details: HEK293, insulin stimulation with 2-deoxyglucose
Method: Briefly, total RNA was isolated from serum-starved HEK293 cells directly or after insulin stimulation with or without 2-deoxyglucose or amino acid starvation. As a control marker, tRNA was […] by mild alkaline hydrolysis in 0.1 M Tris-HCl (pH 8.0) at 75° C. for 5 min. After resolution on an acid/urea gel (Enriquez et al., in Methods Enzymol., Acad. Press, San Diego, vol. 264, pp. 183.), tRNA was visualized with ethidium bromide staining. Expression levels and phosphorylation state of endogenous S6K1 and 4E-BP1 were also measured from serum-starved cells, stimulated with insulin in the presence or absence of amino acids in the media essentially as described in Example 1.
To further test this finding, selected tRNAs were examined by Northern blot analysis of the tRNA resolved by acid/urea gel electrophoresis as described above. The individual tRNA species were probed after electrotransfer to nylon membrane, with radiolabelled oligonucleotides specific for tRNALeu and tRNAHis, namely: tRNALeu 5′-GCGCCTTAGACCGCTCGGCCACG-3′ (SEQ ID NO:1); tRNAHis 5′-GGTGCCGTGACTCGGATTCGAACCG-3′ (SEQ ID NO:2); and tRNAThr 5′-GCG AGA AAT GM CTC GCG-3′ (SEQ ID NO:3).

[5] = test system: HEK293 cells (amino acid levels); assay: Levels of individual amino acids in extracts of insulin-stimulated HEK293 cells; type: cell-based, human; details: 100 mM 2-deoxyglucose
Method: Levels of individual amino acids were measured in extracts prepared from insulin-stimulated HEK293 cells in the presence or absence of amino acids or with 100 mM 2-deoxyglucose treatment and expressed as a percentage of the insulin-stimulated control in the presence of amino acids. Briefly, confluent cultures of HEK293 cells were treated as described above, washed with PBS and drained thoroughly. The cells were then scraped into […] water and sonicated with four 10 sec pulses. Cell debris was removed by centrifugation and sulfosalicylic acid was added to the supernatant to a final concentration of 2%. The samples were then placed on ice for 30 min followed by centrifugation to remove precipitated proteins. The extracts were then analyzed for amino acid content with a Biochrom 20 plus amino acid analyzer (Amersham-Pharmacia Biotech).

mTOR (HA-mTORwt) [6] = molecular target: T1, mTOR (HA-mTORwt) (Homo sapiens, UniProt P42345); assay: In vitro T389 kinase activity of HA-mTORwt immunoprecipitated from treated HEK293 cells; type: cell-based; details: cells treated with 100 mM 2-deoxyglucose; assay with 1 mM ATP, 30 min at 30° C.
T1 construct: expressed in transfected cells; host or cells: HEK293 (anti-HA immunoprecipitate)
Method: (§3) Briefly, transiently transfected, hemaglutinin-tagged (HA) wild-type mTOR (HA-mTORwt) from HEK293 cells were serum starved for 16 hours before insulin stimulation. The cells were then treated with (or controls without) 100 mM 2-deoxyglucose or subjected to amino acid starvation as described above. Cell extracts were prepared for immunoprecipitations with a monoclonal anti-HA antibody. The immunocomplex was washed once with 1 M NaCl in assay buffer (30 mM MOPS (pH7.5), 5 mM NaF, 20 mM β-glycerol phosphate, 1 mM dithioerythritol, 0.1% Triton X-100 and 10% glycerol) and twice with assay buffer alone. […] Quantitation for Km measurements was carried out using scanning densitometry and ImageQuant software (Molecular Dynamics).

mTOR (HA-mTORwt) [7] = molecular target: T1, mTOR (HA-mTORwt); assay: mTOR in vitro kinase activity at varying ATP concentrations (apparent Km for ATP); type: biochemical; details: S6K1 T389 phosphorylation, ATP 0.2-3.0 mM
Method: as §3
Next, we measured mTOR activity in vitro at ATP concentrations that approached physiological levels of 1-5 mM In mammalian cells (Gribble et al., 2000, J.Biol.Chem. 275, 30046).

most protein kinases = details: read-out: Km for ATP of most cellular kinases; cited from earlier work
[8] = insulin stimulated HEK293 transfected with HA-4E-BP1, Western blot
[9] = summary: S6K1 T389 and 4E-BP1 S65 in insulin-stimulated HEK293

Q: Which “inhibition of insulin-induced S6K1 T389 phosphorylation and S6K1 activation (S6 phosphorylation)” value [1] does the source give for `O=CC[C@@H](O)[C@H](O)[C@H](O)CO` [2-deoxyglucose] here?
A: reducing phosphorylation/activation to background levels; also recorded: blocked insulin-induced activation of S6K1

Q: And the “inhibition of 4E-BP1 S65 phosphorylation” value [2, 8]?
A: inhibit 4EBP-1 S65 phosphorylation to background levels

Q: What about the “inhibition of phosphorylation of mTOR targets (summary of Example 1)” value (from here on “inhibition … (summary of Example 1)”) [2, 9] of the same molecule?
A: able to reduce phosphorylation of mTOR targets to background levels

Q: What about the “ATP levels compared to insulin stimulated control (100%)” value ([3]; 20 nM 2-deoxyglucose (so in the source)) of the same molecule?
A: 57-59%

Q: What about the “ATP levels compared to insulin stimulated control (100%)” value ([3]; 40 nM 2-deoxyglucose (so in the source)) of the same molecule?
A: 43-48%

Q: And the “ATP levels compared to insulin stimulated control (100%)” value ([3]; 100 nM 2-deoxyglucose (so in the source))?
A: 32-36%

Q: And the “ATP levels as a percentage of the insulin-stimulated control (100%)” value [3]?
A: 40-49%

Q: And the “insulin-induced activation of PKB, as judged by S473 phosphorylation and in vitro phosphorylation of H2B” value (Protein Kinase B (PKB))?
A: did not inhibit

Q: What about the “TPA-induced MAPK activation, as judged by MBP phosphorylation” value [4] of the same molecule?
A: no discernable effect

Q: What about the “insulin-induced phosphorylation/activation of S6K1-GST” value (S6K1-GST) of the same molecule?
A: reduced insulin-induced activation of S6K1-GST

Q: What about the “insulin-induced phosphorylation/activation of GST-ΔC-S6K1” value (GST-ΔC-S6K1) of the same molecule?
A: unaffected

Q: What about the “effect on total amounts of aminoacylated tRNA” value (aminoacylated tRNA) of the same molecule?
A: Neither insulin stimulation nor 2-deoxyglucose treatment had an effect

Q: What about the “amino acid levels (Ala, Glu, Leu, Ile and Val) as a percentage of the insulin-stimulated control in the presence of amino acids” value [5] of the same molecule?
A: 100-120%

Q: What about the “effect on kinase activity of mTOR in vitro towards T389 of S6K1” value (mTOR (HA-mTORwt) [6]) of the same molecule?
A: no effect

Q: Which Km (mTOR (HA-mTORwt) [7]) does the source give for `Nc1ncnc2c1ncn2[C@@H]1O[C@H](COP(=O)(O)OP(=O)(O)OP(=O)(O)O)[C@@H](O)[C@H]1O` [ATP] here?
A: ≥ 1000 µM and 1000 µM

Q: And the Km (most protein kinases)?
A: 10 to 20 µM

Q: Which “inhibition of 4E-BP1 S65 phosphorylation” value [2] does the source give for `O=C(O)CI` [iodoacetic acid] here?
A: more efficient than dinitrophenol

Q: And the “inhibition … (summary of Example 1)” value [2]?
A: able to reduce phosphorylation of mTOR targets to background levels

Q: With `CO[C@H]1C[C@@H]2CC[C@@H](C)[C@@](O)(O2)C(=O)C(=O)N2CCCC[C@H]2C(=O)O[C@H]([C@H](C)C[C@@H]2CC[C@@H](O)[C@H](OC)C2)CC(=O)[C@H](C)/C=C(\C)[C@@H](O)[C@@H](OC)C(=O)[C@H](C)C[C@H](C)/C=C/C=C/C=C/1C` [rapamycin] as the molecule, how does the “insulin-induced activation of PKB, as judged by S473 phosphorylation and in vitro phosphorylation of H2B” value (Protein Kinase B (PKB)) read?
A: did not inhibit

Q: For `C=C(C)[C@H]1Cc2c(ccc3c2O[C@@H]2COc4cc(OC)c(OC)cc4[C@@H]2C3=O)O1` [rotenone], which “inhibition of insulin-induced S6K1 T389 phosphorylation and S6K1 activation (S6 phosphorylation)” value [1] is on record?
A: inhibitory effect

Q: And the “inhibition of 4E-BP1 S65 phosphorylation” value [2, 8]?
A: inhibitory effect

Q: What about the “inhibition … (summary of Example 1)” value [2, 9] of the same molecule?
A: able to inhibit phosphorylation of mTOR targets

Q: And the “ATP levels as a percentage of the insulin-stimulated control (100%)” value [3]?
A: 75-83%
